# Test results as given in US4652642A, “Azidobenzazepines” (SmithKline Beckman Corporation, priority 1984, dated 1987).
# Tests used:
# [1] = system: α2 sites; assay: competitive binding to α2 sites
# [2] = molecular target: T1, prejunctional alpha2 (α2-adrenoceptor) (Cavia porcellus, UniProt Q60474); assay: prejunctional alpha2-antagonist activity, isolated superfused guinea pig left atrium (clonidine concentration-response shift); format: cell-based; details: clonidine as agonist, superfused with antagonist for thirty minutes, read-out: receptor dissociation constant of the antagonist (KB)
# T1 construct: The left atrium is removed, dissected free of extraneous tissue and mounted in a 2 ml superfusion chamber; from tissue; host or cells: guinea pig (male) left atrium, sympathetic nerve endings
# T1 sequence (Q60474 1-464): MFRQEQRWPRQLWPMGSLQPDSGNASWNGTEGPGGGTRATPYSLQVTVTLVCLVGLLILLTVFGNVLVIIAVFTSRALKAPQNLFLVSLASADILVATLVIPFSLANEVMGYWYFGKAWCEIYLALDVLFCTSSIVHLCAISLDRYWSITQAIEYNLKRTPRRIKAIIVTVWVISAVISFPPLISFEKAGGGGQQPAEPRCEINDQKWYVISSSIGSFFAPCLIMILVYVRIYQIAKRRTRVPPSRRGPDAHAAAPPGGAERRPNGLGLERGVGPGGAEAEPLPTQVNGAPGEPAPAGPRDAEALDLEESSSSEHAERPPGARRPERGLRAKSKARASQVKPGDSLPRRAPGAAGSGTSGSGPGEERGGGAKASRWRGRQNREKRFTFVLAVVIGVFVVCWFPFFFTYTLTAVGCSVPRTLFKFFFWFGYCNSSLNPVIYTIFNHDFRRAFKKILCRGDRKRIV
# Procedure: Briefly, the heart is removed from a pentobarbital-anesthetized male guinea pig. The left atrium is removed, dissected free of extraneous tissue and mounted in a 2 ml superfusion chamber. The tissue is paced at 60 pulse/minute and the sympathetic nerves excited at 6 minute intervals by field stimulation. The response to nerve stimulation is measured as the difference in contractile force between the basal contraction and peak contraction following a nerve stimulation. A concentration-response curve for clonidine (a known alpha2 -agonist) is prepared by administering increasing concentrations of clonidine following each successive stimulation. The tissue is, then, superfused with the alpha2 -antagonist to be tested for thirty minutes and the clonidine concentration-effect curve is repeated in the presence of antagonist. The receptor dissociation constant of the antagonist (KB) is defined as the antagonist concentration required to shift the log concentration-response curve of the agonist to the right by a factor of 2.
# Pharmacol. 309 217-224 (1979). The preferred species of this invention, i.e. the 9-azido-3-methyl-6-chloro compound, has a KB value of 158 nM in the atrium test.
# [3] = system: α2 sites; assay: photolytic inactivation of α2 binding on ultraviolet irradiation
# [4] = system: α2 sites; assay: protection against photolytic deactivation by concomitant adrenoceptor agents; format: binding; details: concomitant with the 9-azido-3-methyl-6-chloro compound, ultraviolet light
structure (smiles),measurement,setting,value
"CN1CCc2c(Cl)ccc(N=[N+]=[N-])c2CC1 [9-azido-3-methyl-6-chloro compound, 9-azido-6-chloro-3-methyl-2,3,4,5-tetrahydro-1H-3-benzazepine]",mode of binding to α2 sites,[1]; without irradiation,bind competitively
same,Ki,[1]; α2 sites,42 nM
same,Kb,[2],158 nM
same,binding effect when irradiated with ultraviolet light,[3],the binding effect is made irreversible
same,dependence of photolytic inactivation,[3]; irradiated with ultraviolet light,concentration and time dependent
COc1cc2nc(N3CCN(C(=O)c4ccco4)CC3)nc(N)c2cc1OC [Prazosin],effect of concomitant presence on photolytic deactivation,[4],no effect
Nc1cc(Cl)c(NC2=NCCN2)c(Cl)c1 [p-aminoclonidine],effect of concomitant presence on photolytic deactivation,[4],complete protection
Cc1ccc(N(CC2=NCCN2)c2cccc(O)c2)cc1 [phentolamine],effect of concomitant presence on photolytic deactivation,[4],partially blocks the photolytic deactivation
